Article PMC9161374 (Science Translational Medicine, 2022)
Where “and” joins values, the source holds several entries; their conditions need not be identical. Identical values can stand only once.

Columns and labels:
[1] = tested on: SARS-CoV-2 (B.1) in Huh7 cells; test: Anti-SARS-CoV-2 activity in Huh7 cells (viral yield by qRT-PCR); format: cell-based; conditions: B.1, MOI 0.05, 48 h
[2] = tested on: SARS-CoV-2 (Delta, B.1.617.2); test: microbe, parasite or virus in culture; format: cell-based; conditions: for % Inhibition: delta
[3] = tested on: SARS-CoV-2 (Beta, B.1.351); test: microbe, parasite or virus in culture; format: cell-based; conditions: for % Inhibition: beta
SARS-CoV-2 (B.1) = test: Anti-SARS-CoV-2 activity in Vero E6 cells (viral yield by qRT-PCR); format: cell-based
[4] = tested on: SARS-CoV-2 replicon system (pBAC-SARS-CoV-2-Replicon-Luc); test: microbe, parasite or virus in culture; format: cell-based; conditions: Severe acute respiratory syndrome coronavirus 2, HEK-293T, 60 h
[5] = CCK-8 cell viability assay; format: cell-based, African green monkey; conditions: African green monkey; Vero E6 cells, 48 h, CCK8
Method in brief: (§1)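 Vero E6 cells, 20,000/well, exposed to compound at 0–200 μM (0, 0.01, 0.1, 1, 5, 10, 50, 75, 100, 200 μM) for 48 h; viability read by CCK-8 and expressed as percentage versus drug concentration, mean ± SD.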

Vero E6 cells = test: CCK-8 cell viability assay; format: cell-based, African green monkey; conditions: individual replicate values, Fig.S4
Method in brief: as §1

SMILES: N#C[C@@]1(c2ccc3c(N)ncnn23)O[C@H](COC(=O)c2ccccc2)[C@@H](O)[C@H]1O [ATV013]
- EC50 ([1]; Severe acute respiratory syndrome coronavirus 2, Huh-7, read-out: EC50 (Confidence 95%) in Huh7 cells): 964 nM
- EC90 ([1]; Severe acute respiratory syndrome coronavirus 2, Huh-7, read-out: EC90 (Confidence 95%) in Huh7 cells): 1320 nM
- EC50 ([2]; Severe acute respiratory syndrome coronavirus 2, Vero C1008, 48 h, read-out: EC50 in Vero E6 cells, SARS-CoV-2 (Delta, B.1.617.2)): 965 nM
- inhibition at 0.01 µM ([2]; Severe acute respiratory syndrome coronavirus 2, Vero C1008, delta, 0.01 uM, Vero E6, replicates): 0%
- inhibition at 0.1 µM ([2]; Severe acute respiratory syndrome coronavirus 2, Vero C1008, delta, 0.1 uM, Vero E6, replicates): 0%
- inhibition at 0.25 µM ([2]; Severe acute respiratory syndrome coronavirus 2, Vero C1008, delta, 0.25 uM, Vero E6, replicates): 0%
- inhibition at 1 µM ([2]; Severe acute respiratory syndrome coronavirus 2, Vero C1008, delta, 1 uM, Vero E6, replicates): 50.4%
- inhibition at 2 µM ([2]; Severe acute respiratory syndrome coronavirus 2, Vero C1008, delta, 2 uM, Vero E6, replicates): 93.4%
- inhibition at 5 µM ([2]; Severe acute respiratory syndrome coronavirus 2, Vero C1008, delta, 5 uM, Vero E6, replicates): 96.1%
- inhibition at 10 µM ([2]; Severe acute respiratory syndrome coronavirus 2, Vero C1008, delta, 10 uM, Vero E6, replicates): 99.7%
- inhibition at 50 µM ([2]; Severe acute respiratory syndrome coronavirus 2, Vero C1008, delta, 50 uM, Vero E6, replicates): 100%
- EC90 ([2]; Severe acute respiratory syndrome coronavirus 2, Vero C1008, read-out: EC90 (Confidence 95%), Vero-E6, Delta B.1.617.2): 1410 nM
- % Inhibition ([2]; 0.01 uM, Vero E6, replicates): 0%
- % Inhibition ([2]; 0.1 uM, Vero E6, replicates): 0%
- % Inhibition ([2]; 0.25 uM, Vero E6, replicates): 0%
- % Inhibition ([2]; 0.5 uM, Vero E6, replicates): 0.1843% and 0%
- % Inhibition ([2]; 1 uM, Vero E6, replicates): 60.4565%
- % Inhibition ([2]; 2 uM, Vero E6, replicates): 90.993%
- % Inhibition ([2]; 5 uM, Vero E6, replicates): 93.9334%
- % Inhibition ([2]; 10 uM, Vero E6, replicates): 98.4346%
- % Inhibition ([2]; 50 uM, Vero E6, replicates): 99.9058%
- EC50 ([3]; Severe acute respiratory syndrome coronavirus 2, Vero C1008, 48 h, read-out: EC50 in Vero E6 cells, SARS-CoV-2 (Beta, B.1.351)): 2430 nM
- inhibition at 0.01 µM ([3]; Severe acute respiratory syndrome coronavirus 2, Vero C1008, beta, 0.01 uM, Vero E6, replicates): 0%
- inhibition at 0.1 µM ([3]; Severe acute respiratory syndrome coronavirus 2, Vero C1008, beta, 0.1 uM, Vero E6, replicates): 0%
- inhibition at 0.25 µM ([3]; Severe acute respiratory syndrome coronavirus 2, Vero C1008, beta, 0.25 uM, Vero E6, replicates): 0%
- inhibition at 0.5 µM ([3]; Severe acute respiratory syndrome coronavirus 2, Vero C1008, beta, 0.5 uM, Vero E6, replicates): 0%
- inhibition at 1 µM ([3]; Severe acute respiratory syndrome coronavirus 2, Vero C1008, beta, 1 uM, Vero E6, replicates): 0%
- inhibition at 2 µM ([3]; Severe acute respiratory syndrome coronavirus 2, Vero C1008, beta, 2 uM, Vero E6, replicates): 23.7%
- inhibition at 5 µM ([3]; Severe acute respiratory syndrome coronavirus 2, Vero C1008, beta, 5 uM, Vero E6, replicates): 99.7%
- inhibition at 10 µM ([3]; Severe acute respiratory syndrome coronavirus 2, Vero C1008, beta, 10 uM, Vero E6, replicates): 99.9%
- inhibition at 50 µM ([3]; Severe acute respiratory syndrome coronavirus 2, Vero C1008, beta, 50 uM, Vero E6, replicates): 99.9%
- EC90 ([3]; Severe acute respiratory syndrome coronavirus 2, Vero C1008, read-out: EC90 (Confidence 95%), Vero-E6, Beta B.1.351): 3090 nM
- % Inhibition ([3]; 0.01 uM, Vero E6, replicates): 0%
- % Inhibition ([3]; 0.1 uM, Vero E6, replicates): 0%
- % Inhibition ([3]; 0.25 uM, Vero E6, replicates): 0%
- % Inhibition ([3]; 0.5 uM, Vero E6, replicates): 0%
- % Inhibition ([3]; 1 uM, Vero E6, replicates): 0%
- % Inhibition ([3]; 2 uM, Vero E6, replicates): 12.3832%
- % Inhibition ([3]; 5 uM, Vero E6, replicates): 99.5222%
- % Inhibition ([3]; 10 uM, Vero E6, replicates): 99.9634%
- % Inhibition ([3]; 50 uM, Vero E6, replicates): 99.9455%
- % Inhibition (SARS-CoV-2 (B.1); 0.1 μM, replicates, sheet Fig.S3): 0%
- % Inhibition (SARS-CoV-2 (B.1); 0.5 μM, replicates, sheet Fig.S3): 0%
- % Inhibition (SARS-CoV-2 (B.1); 1 μM, replicates, sheet Fig.S3): 54.9033%
- % Inhibition (SARS-CoV-2 (B.1); 2 μM, replicates, sheet Fig.S3): 83.4601%
- % Inhibition (SARS-CoV-2 (B.1); 5 μM, replicates, sheet Fig.S3): 91.8254%
- % Inhibition (SARS-CoV-2 (B.1); 10 μM, replicates, sheet Fig.S3): 91.2053%
- % Inhibition (SARS-CoV-2 (B.1); B.1, 0.01 uM, Vero E6, replicates): 0%
- % Inhibition (SARS-CoV-2 (B.1); B.1, 0.1 uM, Vero E6, replicates): 0%
- % Inhibition (SARS-CoV-2 (B.1); B.1, 0.25 uM, Vero E6, replicates): 0%
- % Inhibition (SARS-CoV-2 (B.1); B.1, 0.5 uM, Vero E6, replicates): 0%
- % Inhibition (SARS-CoV-2 (B.1); B.1, 1 uM, Vero E6, replicates): 0%
- % Inhibition (SARS-CoV-2 (B.1); B.1, 5 uM, Vero E6, replicates, 5 µM): 99.7536%
- % Inhibition (SARS-CoV-2 (B.1); B.1, 10 uM, Vero E6, replicates, 10 µM): 99.9918%
- % Inhibition (SARS-CoV-2 (B.1); B.1, 50 uM, Vero E6, replicates, 50 µM): 99.9922%
- inhibition at 0.1 µM (SARS-CoV-2 (B.1); Severe acute respiratory syndrome coronavirus 2, Vero C1008, 0.1 μM, replicates, sheet Fig.S3): 0%
- inhibition at 0.5 µM (SARS-CoV-2 (B.1); Severe acute respiratory syndrome coronavirus 2, Vero C1008, 0.5 μM, replicates, sheet Fig.S3): 0%
- inhibition at 1 µM (SARS-CoV-2 (B.1); Severe acute respiratory syndrome coronavirus 2, Vero C1008, 1 μM, replicates, sheet Fig.S3): 62%
- inhibition at 2 µM (SARS-CoV-2 (B.1); Severe acute respiratory syndrome coronavirus 2, Vero C1008, 2 μM, replicates, sheet Fig.S3): 83.8%
- inhibition at 5 µM (SARS-CoV-2 (B.1); Severe acute respiratory syndrome coronavirus 2, Vero C1008, 5 μM, replicates, sheet Fig.S3): 93.6%
- inhibition at 10 µM (SARS-CoV-2 (B.1); Severe acute respiratory syndrome coronavirus 2, Vero C1008, 10 μM, replicates, sheet Fig.S3): 93.5%
- inhibition at 0.01 µM (SARS-CoV-2 (B.1); Severe acute respiratory syndrome coronavirus 2, Vero C1008, B.1, 0.01 uM, Vero E6, replicates): 0%
- inhibition at 0.1 µM (SARS-CoV-2 (B.1); Severe acute respiratory syndrome coronavirus 2, Vero C1008, B.1, 0.1 uM, Vero E6, replicates): 0%
- inhibition at 0.25 µM (SARS-CoV-2 (B.1); Severe acute respiratory syndrome coronavirus 2, Vero C1008, B.1, 0.25 uM, Vero E6, replicates): 0%
- inhibition at 0.5 µM (SARS-CoV-2 (B.1); Severe acute respiratory syndrome coronavirus 2, Vero C1008, B.1, 0.5 uM, Vero E6, replicates): 0%
- inhibition at 1 µM (SARS-CoV-2 (B.1); Severe acute respiratory syndrome coronavirus 2, Vero C1008, B.1, 1 uM, Vero E6, replicates): 0%
- inhibition at 5 µM (SARS-CoV-2 (B.1); Severe acute respiratory syndrome coronavirus 2, Vero C1008, B.1, 5 uM, Vero E6, replicates): 99.5%
- inhibition at 10 µM (SARS-CoV-2 (B.1); Severe acute respiratory syndrome coronavirus 2, Vero C1008, B.1, 10 uM, Vero E6, replicates): 100%
- inhibition at 50 µM (SARS-CoV-2 (B.1); Severe acute respiratory syndrome coronavirus 2, Vero C1008, B.1, 50 uM, Vero E6, replicates): 100%
- EC90 (SARS-CoV-2 (B.1); Severe acute respiratory syndrome coronavirus 2, Vero C1008, read-out: EC90 (Confidence 95%)): 2870 nM
- EC50 (SARS-CoV-2 (B.1); Severe acute respiratory syndrome coronavirus 2, Vero C1008, MOI 0.05, 48 h): 2260 nM
- EC50 ([4]; read-out: EC50 (Confidence 95%), replicon): 497 nM
- EC90 ([4]; read-out: EC90 (Confidence 95%), replicon): 1140 nM
- CC50 at 48 h [5]: > 50000 nM
- cell viability (% of control) (Vero E6 cells; 1 μM compound, 1 µM): 66.6435 % of control and 71.881 % of control and 81.6609 % of control
- cell viability (% of control) (Vero E6 cells; 2 μM compound, 2 µM): 62.1939 % of control and 100.479 % of control and 98.8104 % of control
- cell viability (% of control) (Vero E6 cells; 5 μM compound, 5 µM): 79.1116 % of control and 101.73 % of control and 106.643 % of control
- cell viability (% of control) (Vero E6 cells; 10 μM compound, 10 µM): 79.4361 % of control and 86.4349 % of control and 92.6458 % of control
- cell viability (% of control) (Vero E6 cells; 20 μM compound, 20 µM): 76.9332 % of control and 94.4535 % of control and 115.728 % of control
- cell viability (% of control) (Vero E6 cells; 50 μM compound, 50 µM): 73.9991 % of control and 102.436 % of control and 88.29 % of control
